The values that follow come from a melting point compilation (Tetko et al.).

Molecules are shown by their SMILES.

The term melting point denotes the temperature of the solid-liquid transition. As for `Nc1ncc(-c2cccc(F)c2)s1`, the melting point was 168 to 170 °C.

`CC(C(=O)O)C(NC(=O)OC(C)(C)C)c1ccccc1` (stereo unspecified): the melting point lay within 71 to 73 °C.

`CC(C)(C)Oc1c(F)cc(N)cc1F` displayed a melting point of 99 to 101 °C.

`Cc1ccccc1-n1cnnc1S`: the melting point lay in the range of 144 to 146 °C.

With `Fc1ccc(-c2cc3ncnc(Cl)c3s2)cc1`, the melting point was in the range of 202 to 206 °C.

Take `Cc1nc(Cc2ccccc2)sc1C(=O)O`: the melting point fell in the range of 236 to 238 °C.

For the compound `O=Ic1ccccc1`, the melting point was 199 to 201 °C.

`O=[N+]([O-])c1ccc2oc(S)nc2c1`: the melting point is 241 to 243 °C.

As for `O=C(O)CNC(=O)C1CCCC1`, the melting point fell in the range of 109 to 111 °C.

Regarding `O=C(O)c1ccc(C(=O)c2cc[nH]c2)cc1`, the melting point was in the range of 219 to 221 °C.

As for `Cc1ccc(-c2cc(C(=O)O)on2)cc1`, the melting point was in the range of 204 to 206 °C.

Take `NC(c1ccncc1)c1ccc(F)cc1` (stereo unspecified): the melting point was 63 to 65 °C.

Consider `COc1cccc(C=O)c1OC(F)F`, for which the melting point lay within 30 to 32 °C.

`Nc1cccc(Oc2cnccn2)c1` showed a melting point of 89 to 91 °C.

As to `Nc1c(-c2ccccc2)nn(-c2ccccc2)c1N`, the melting point is 89 to 91 °C.

As to `COc1ccc(N2C(=O)C=CC2=O)c(OC)c1`, the melting point fell in the range of 125 to 127 °C.

As for `NC1CCCc2nc(-c3ccc(F)cc3)sc21` (stereo unspecified), the melting point is 54 to 56 °C.

As for `Nc1noc(COc2ccc(F)cc2)n1`, the melting point was 154 to 156 °C.

`COc1ccc(-c2nn(-c3ccccc3)cc2CC(=O)O)cc1` came in with a melting point of 161 to 163 °C.

In turn, `OC(c1cccc(F)c1)c1ccccn1` (stereo unspecified) yielded a melting point of 78 to 80 °C.

Turning to `N#CC(=O)c1ccc(Cl)cc1`, the melting point is 41 to 43 °C.

`COC(=O)c1cccc(OCc2ncon2)c1` returned a melting point of 102 to 104 °C.

Regarding `O=c1[nH]ccc2ccn(Cc3ccccc3)c12`, the melting point fell in the range of 177 to 179 °C.

As for `O=C(O)c1cc2c(s1)-c1cc(F)ccc1SC2`, the melting point lay within 279 to 281 °C.

Compound `Cc1nc(Cl)c(NN)nc1C` displayed a melting point of 134 to 136 °C.

Regarding `CCC(CO)NC(=O)Cc1ccc(N)cc1` (stereo unspecified), the melting point was 107 to 109 °C.

Consider `O=C(O)c1cccnc1SCc1ccc(F)cc1`, for which the melting point was 191 to 193 °C.

`O=C(O)c1ccccc1CN1C(=O)CNC1=O`: the melting point was in the range of 201 to 203 °C.

`O=C(CCl)Nc1cc([N+](=O)[O-])ccc1F` showed a melting point of 125 to 127 °C.

The compound `NS(=O)(=O)c1ccc(C(=O)O)s1` yielded a melting point of 229 to 231 °C.

As to `CC(C)C(Br)C(=O)Nc1ccccc1F` (stereo unspecified), the melting point lay in the range of 98 to 100 °C.

`NCc1nc2ccccc2s1` showed a melting point of 199 to 201 °C.

In turn, `COC(=O)c1ccccc1NC(=O)CBr` registered a melting point of 78 to 80 °C.

In turn, `O=C1COc2c(cccc2C(=O)O)N1` showed a melting point of 311 to 313 °C.

For the compound `Cc1ccc(-c2nc(N)sc2C)s1`, the melting point lay within 127 to 129 °C.

In the case of `CC1CN(C(CN)c2c(F)cccc2F)CC(C)O1` (stereo unspecified), the melting point fell in the range of 59 to 61 °C.

As to `O=C(O)CCc1nc2ccccc2n1-c1ccccc1`, the melting point is 232 to 234 °C.

Consider `O=C(O)C(Cc1ccsc1)C(=O)O`, for which the melting point lay within 108 to 110 °C.

The compound `c1cc(NC2CCCCCC2)c2cccnc2c1` displayed a melting point of 100 to 102 °C.

The compound `CC(=O)c1ccc(OC2CCCCC2)c(F)c1` showed a melting point of 48 to 50 °C.

In turn, `CCNC(=O)NCCO` had a melting point of 53 to 55 °C.

In turn, `Cn1cnnc1-c1ccc(N)nc1` came in with a melting point of 249 to 251 °C.

In turn, `Cc1cc(F)ccc1-n1ccc(C(=O)O)n1` displayed a melting point of 197 to 199 °C.

`O=C(CCl)Nc1ccc(SC(F)F)cc1` yielded a melting point of 55 to 57 °C.

`C=CCNC(=O)c1cccc(S(=O)(=O)Cl)c1`: the melting point was in the range of 62 to 64 °C.

On to `Nc1cc(Cl)c(NC(=O)c2ccncc2)c(Cl)c1`, for which the melting point lay within 233 to 235 °C.

Compound `O=C(O)CCc1nc2ccccc2c(=O)n1C1CC1` had a melting point of 183 to 185 °C.

As for `O=C1CCc2c(F)cccc21`, the melting point was 71 to 73 °C.

In turn, `Nc1ccc(S(=O)(=O)Nc2ccc(Cl)c(C(F)(F)F)c2)cc1` had a melting point of 144 to 146 °C.

As for `CC(C)C(=O)N1CCCCC1C(=O)O` (stereo unspecified), the melting point was 123 to 125 °C.

Take `COc1ccc(CCl)cc1C#N`: the melting point lay within 99 to 101 °C.

`Nc1ccn(CC(=O)N2CCOCC2)n1` showed a melting point of 168 to 170 °C.

On to `CC(=O)c1c(C)[nH]c(C(=O)O)c1C`, for which the melting point fell in the range of 205 to 207 °C.

On to `Nc1ccc2nc(N3CCOCC3)oc2c1`, for which the melting point was in the range of 176 to 178 °C.

The compound `Nc1ncc2c(n1)CCC1(C2)OCCO1` yielded a melting point of 215 to 217 °C.

`O=C(Nc1ccc(OC(F)(F)F)cc1)OCC(F)(F)F`: the melting point was 64 to 66 °C.

For the compound `CC1Cc2ccccc2N1C(=O)C1CCCCC1C(=O)O` (stereo unspecified), the melting point is 123 to 125 °C.

As for `COc1cc(OC)cc(N2CC(C(=O)O)CC2=O)c1` (stereo unspecified), the melting point fell in the range of 125 to 127 °C.

In the case of `ClCc1nc(-c2ccco2)no1`, the melting point fell in the range of 82 to 84 °C.

Compound `COC(=O)Cc1c(C(=O)OC)sc2nc(CCl)[nH]c(=O)c12` returned a melting point of 208 to 210 °C.

Turning to `C#CCNC(=O)C(C)Cl` (stereo unspecified), the melting point is 61 to 63 °C.

Consider `N#Cc1cccnc1Oc1ccc(N)cc1`, for which the melting point was 152 to 154 °C.

Take `CCn1c(=O)cc(N)n(Cc2ccccc2)c1=O`: the melting point was in the range of 106 to 108 °C.

`CC(=O)c1ccc(SCC(=O)O)c(F)c1` gave a melting point of 140 to 142 °C.

With `CS(=O)Cc1c(C(=O)O)oc2ccccc12` (stereo unspecified), the melting point fell in the range of 177 to 179 °C.

As for `CC(C)c1cccc(S(N)(=O)=O)c1`, the melting point was in the range of 74 to 76 °C.

`C=CCn1c(N)c(C(N)=S)sc1=S` registered a melting point of 195 to 197 °C.

The compound `Cc1n[nH]c(C(N)=O)n1` had a melting point of 222 to 224 °C.

The compound `NS(=O)(=O)Cc1ccon1` displayed a melting point of 106 to 108 °C.

In turn, `COCCNS(=O)(=O)c1ccc(N)cc1` came in with a melting point of 83 to 85 °C.

`O=C(O)C1CCN(S(=O)(=O)c2ccc3c(c2)OCCCO3)CC1` yielded a melting point of 173 to 178 °C.

Compound `O=C(O)c1ccc(COc2ccccc2)o1` had a melting point of 169 to 171 °C.

The compound `Nc1nc(Cc2ccccc2)ns1` displayed a melting point of 133 to 135 °C.

Turning to `CCn1c(N)nc2cc(Cl)ccc21`, the melting point was 169 to 171 °C.

As for `COc1ccc(OC)c2c(O)c(C(=O)O)cnc12`, the melting point fell in the range of 272 to 274 °C.

Compound `O=C(O)c1nn(-c2ccc(Cl)cc2)cc1O` gave a melting point of 248 to 250 °C.

Take `COC(=O)c1ccc(C(=O)c2cc[nH]c2)cc1`: the melting point lay in the range of 159 to 161 °C.

`COc1cc(SC#N)ccc1O`: the melting point lay in the range of 78 to 80 °C.

Compound `O=C(NCc1cccnc1)OCC(F)(F)F` showed a melting point of 45 to 47 °C.

As for `CN1CCC(Oc2ccc(C(=O)O)cc2)CC1`, the melting point lay in the range of 218 to 220 °C.

As to `N#CCn1c(CCl)nc2ccccc2c1=O`, the melting point was 143 to 145 °C.

Turning to `O=C(CC(=O)C(F)(F)F)c1ccncc1`, the melting point fell in the range of 255 to 257 °C.

In turn, `COc1ccc(CCl)cc1S(C)(=O)=O` registered a melting point of 118 to 120 °C.

Compound `O=c1[nH]c2cc(Br)ccc2o1` showed a melting point of 209 to 211 °C.

The compound `Cc1ccc2nc(-c3ccc(N=C=S)cc3)sc2c1` returned a melting point of 243 to 245 °C.

Regarding `COC(=O)C1CCN(c2nccc3sccc23)CC1`, the melting point was 83 to 85 °C.

`O=C(O)C1CCc2cn[nH]c2C1` (stereo unspecified) displayed a melting point of 234 to 236 °C.

In turn, `Cc1c(C(N)=O)cccc1[N+](=O)[O-]` showed a melting point of 163 to 165 °C.

Regarding `Nc1cc(Br)ccc1I`, the melting point is 49 to 51 °C.

In turn, `Nc1cc(F)c(F)cc1[N+](=O)[O-]` returned a melting point of 107 to 108 °C.

Regarding `Cc1ccc(C(C)NC(=O)CCl)cc1C` (stereo unspecified), the melting point lay within 196 to 198 °C.

As to `CCCc1ncc(C(=O)O)s1`, the melting point is 135 to 137 °C.

On to `Nc1ccc(F)c(NC(=O)c2ccsc2)c1`, for which the melting point was in the range of 118 to 120 °C.

In the case of `N#Cc1ccncc1C(=O)O`, the melting point is 175 to 177 °C.

Compound `CCc1c(C(=O)O)cnn1-c1ccc(Br)cc1` yielded a melting point of 209 to 211 °C.

The compound `Nc1nc(-c2ccc(OCc3ccccc3)cc2)cs1` showed a melting point of 160 to 162 °C.

`CN(C(=O)CCl)c1nccs1` displayed a melting point of 123 to 125 °C.

The compound `O=C1NCCCCC1Oc1ccc(O)cc1` (stereo unspecified) registered a melting point of 219 to 221 °C.

In turn, `CC(Oc1cccc(C=O)c1)C(=O)O` (stereo unspecified) showed a melting point of 65 to 67 °C.

For the compound `CC(C)S(=O)(=O)Cc1cccc(N)c1`, the melting point fell in the range of 113 to 115 °C.

For `O=C(c1ccccc1)c1ncccn1`, the melting point fell in the range of 79 to 81 °C.

`Cc1csc(NCCc2ccccc2)n1` registered a melting point of 80 to 82 °C.

In turn, `CN(C(=O)C(C)(C)C)c1ccc(O)cc1` showed a melting point of 189 to 191 °C.

`CCOC(=O)c1c(N)oc(C)c1C(C)=O` registered a melting point of 135 to 137 °C.

The compound `CSCCC(C(=O)O)N1C(=O)c2ccccc2C1=O` (stereo unspecified) gave a melting point of 125 to 127 °C.

On to `Cc1cc(C(F)(F)F)c2c(C)c(C(=O)O)sc2n1`, for which the melting point is 259 to 261 °C.

In turn, `Cc1c(NC(=O)CSc2ccccc2C(=O)O)c(=O)n(-c2ccccc2)n1C` had a melting point of 120 to 123 °C.

`O=S(=O)(Cl)CCNS(=O)(=O)c1ccccc1` gave a melting point of 96 to 98 °C.

Compound `CC(C)(C)C1CCc2[nH]c(=O)sc2C1` (stereo unspecified) registered a melting point of 205 to 207 °C.

`CC1Oc2c(ccc(Cl)c2Cl)C1=O` (stereo unspecified): the melting point lay within 99 to 101 °C.

The compound `Nc1ccc2ccn(Cc3ccccc3)c2c1` yielded a melting point of 119 to 121 °C.

Take `Cc1cccc(NC(=O)C(C)Cl)c1` (stereo unspecified): the melting point lay within 128 to 130 °C.

In turn, `N#Cc1ccc2cc(Br)c(Br)cc2c1` came in with a melting point of 138 to 140 °C.

As for `Cc1ccc(S(=O)(=O)NC2CC2)cc1C(=O)O`, the melting point lay within 252 to 257 °C.

The compound `O=[N+]([O-])c1cc(NS(=O)(=O)c2ccc3c(c2)OCCCO3)ccc1F` came in with a melting point of 145 to 147 °C.

In the case of `O=C(O)C1CCN(C(=O)c2cccnc2)CC1`, the melting point was 188 to 190 °C.

With `N#Cc1cc2c([nH]c1=O)CCC2`, the melting point lay in the range of 219 to 221 °C.

The compound `O=C(CC(F)(F)F)c1ccc(F)cc1` registered a melting point of 29 to 31 °C.

`O=C1NCCNC1c1cccc(Br)c1` (stereo unspecified) returned a melting point of 117 to 119 °C.

As for `CC1=NN(C)C(=O)C1`, the melting point lay within 109 to 111 °C.

`O=C1Nc2c(I)cccc2C1=O` came in with a melting point of 200 to 202 °C.
